From patent US20090099192A1, “Substituted 1H-pyrrole-2,5-diones” (Bayer CropScience AG, priority 2004, published 2009)

assay: logP determination by HPLC on reversed-phase column (C 18), EEC Directive 79/831 Annex V.A8; format: physicochemical; details: reversed-phase C 18, 43° C., acid range (0.1% aqueous phosphoric acid, acetonitrile), marked a)
Method: a) The logP values given in table 1 were determined in accordance with EEC Directive 79/831 Annex V.A8 by HPLC (High Performance Liquid Chromatography) on a reversed-phase column (C 18). Temperature: 43° C. (a) Mobile phases for the determination in the acid range: 0.1% aqueous phosphoric acid, acetonitrile; linear gradient from 10% acetonitrile to 90% acetonitrile—corresponding measurement results are marked a) in table 1. Calibration was carried out using unbranched alkan-2-ones (having 3 to 16 carbon atoms) with known logP values (determination of the logP values by the retention times using linear interpolation between two successive alkanones).

Row | Structure (SMILES) | logP
1 | Cc1ccc(-c2ccc(Cl)cc2)cc1C1=C(O)C(=O)N(C(C)(C)c2ccccc2Cl)C1=O [Example 142] | logP = 4.80^a)
2 | O=C1C(O)=C(c2c(F)cccc2F)C(=O)N1Cc1ccc(OC(F)(F)F)cc1 [Example 82] | logP = 3.16^a)
3 | O=C1C(O)=C(c2cccc(OC(F)(F)F)c2)C(=O)N1CC(F)(F)F [Example 42] | logP = 2.82^a)
4 | O=C1C(O)=C(c2cccc(OC(F)(F)F)c2)C(=O)N1c1ccc(C(F)(F)F)cc1 [Example 71] | logP = 3.75^a)
5 | Cc1cc(C)c(C2=C(O)C(=O)N(Cc3ccc(OC(F)(F)F)cc3)C2=O)c(C)c1 [Example 81] | logP = 4.24^a)
6 | N#Cc1ccc(C2=C(O)C(=O)N(c3cc(Cl)cc(Cl)c3)C2=O)cc1 [Example 77] | logP = 2.80^a)
7 | CC(C)(C)C(=O)OC1=C(c2ccccc2Cl)C(=O)N(C2CCCCC2)C1=O [Example 23] | logP = 5.39^a)
8 | O=C1C(O)=C(c2ccccc2F)C(=O)N1c1ccc(OC(F)(F)F)cc1 [Example 51] | logP = 3.13^a)
9 | CCOC(=O)C1(N2C(=O)C(OC(=O)C(C)(C)C)=C(c3ccccc3Cl)C2=O)CCCC(C)C1 (centres unmarked) [Example 170] | logP = 5.85^a)
10 | CC1CCCC(N2C(=O)C(O)=C(c3cccc(C(F)(F)F)c3)C2=O)C1 (centres unmarked) [Example 175] | logP = 4.56^a)
11 | CCOC(=O)CCN1C(=O)C(O)=C(c2ccc(C)cc2)C1=O [Example 180] | logP = 2.74^a)
12 | Cc1ccc(C2=C(O)C(=O)N(Cc3ccc(OC(F)(F)F)cc3)C2=O)cc1 [Example 92] | logP = 4.27^a)
13 | Cc1ccc(-c2ccc(Cl)cc2)cc1C1=C(O)C(=O)N(C(C)C)C1=O [Example 122] | logP = 4.08^a)
14 | O=C1C(O)=C(c2c(F)cccc2F)C(=O)N1c1ccc(Cl)cc1 [Example 58] | logP = 2.45^a)
15 | Cc1ccc(-c2ccc(Cl)cc2)cc1C1=C(O)C(=O)N(C(C)c2ccccc2Cl)C1=O (racemic) [Example 136] | logP = 4.75^a)
16 | Cc1cc(C)c(C2=C(O)C(=O)N(Cc3c(F)cccc3F)C2=O)c(C)c1 [Example 104] | logP = 3.48^a)
17 | CC1CCCC(N2C(=O)C(O)=C(c3ccccc3Br)C2=O)C1 (centres unmarked) [Example 163] | logP = 3.61^a)
18 | Cc1ccc(C2=C(O)C(=O)N(Cc3cc(Cl)cc(Cl)c3)C2=O)cc1 [Example 119] | logp = 4.42^a)
19 | Cc1ccc(-c2ccc(Cl)cc2)cc1C1=C(O)C(=O)N(Cc2ccc(OC(F)(F)F)cc2)C1=O [Example 134] | logP = 4.84^a)
20 | Cc1ccc(-c2ccc(Cl)cc2)cc1C1=C(O)C(=O)N(c2ccccc2Cl)C1=O [Example 129] | logP = 4.03^a)
21 | CCOC(=O)C1(N2C(=O)C(O)=C(c3ccccc3Cl)C2=O)CCCCC1 [Example 167] | logP = 3.40^a)
22 | O=C1C(O)=C(c2ccccc2Cl)C(=O)N1c1ccccc1C(F)(F)F [Example 25] | logP = 2.60^a)
23 | CCOc1cccc(F)c1CN1C(=O)C(O)=C(c2ccc(C#N)cc2)C1=O [Example 172] | logP = 2.61^a)
24 | O=C1C(O)=C(c2cccc(C(F)(F)F)c2)C(=O)N1c1ccc(OC(F)(F)F)cc1 [Example 53] | logP = 3.75^a)
25 | O=C1C(O)=C(c2ccc(OC(F)(F)F)cc2)C(=O)N1c1cc(Cl)cc(Cl)c1 [Example 76] | logP = 4.15^a)

Row | Structure (SMILES) | logP
26 | Cc1ccc(-c2ccc(Cl)cc2)cc1C1=C(O)C(=O)N(C(C)c2ccc(Cl)cc2)C1=O (centres unmarked) [Example 120] | logP = 4.94^a)
27 | O=C1C(O)=C(c2ccc(Cl)cc2)C(=O)N1Cc1cc(Cl)cc(Cl)c1 [Example 115] | logP = 4.48^a)
28 | COC(=O)C1(N2C(=O)C(O)=C(c3ccccc3Cl)C2=O)CCCC(C)C1 (centres unmarked) [Example 166] | logP = 3.48^a)
29 | O=C1C(O)=C(c2ccccc2Cl)C(=O)N1c1cccc(C(F)(F)F)c1 [Example 26] | logP = 3.04^a)
30 | O=C1C(O)=C(c2ccccc2Cl)C(=O)N1c1ccc(C(F)(F)F)cc1 [Example 27] | logP = 3.10^a)
31 | O=C1C(O)=C(c2cc(Cl)cc(Cl)c2)C(=O)N1CC(F)(F)F [Example 43] | logP = 2.67^a)
32 | O=C1C(O)=C(c2cccc(C(F)(F)F)c2)C(=O)N1c1cc(Cl)cc(Cl)c1 [Example 75] | logP = 3.78^a)
33 | O=C1C(O)=C(c2ccccc2F)C(=O)N1c1ccc(Cl)cc1 [Example 59] | logP = 2.76^a)
34 | O=C1C(O)=C(c2ccccc2Cl)C(=O)N1c1ncc(C(F)(F)F)s1 [Example 164] | logP = 3.14^a)
35 | O=C1C(O)=C(c2c(F)cccc2F)C(=O)N1c1ccc(C(F)(F)F)cc1 [Example 66] | logP = 3.48^a)
36 | N#Cc1ccc(C2=C(O)C(=O)N(c3ccc(OC(F)(F)F)cc3)C2=O)cc1 [Example 54] | logP = 2.70^a)
37 | CC1CCCC(N2C(=O)C(O)=C(c3ccccc3Cl)C2=O)C1 (centres unmarked) [Example 162] | logP = 3.57^a)
38 | CCOC(=O)CCN1C(=O)C(O)=C(c2cccc(OC(F)(F)F)c2)C1=O [Example 178] | logP = 3.95^a)
39 | N#Cc1ccc(C2=C(O)C(=O)N(Cc3cc(Cl)cc(Cl)c3)C2=O)cc1 [Example 114] | logP = 2.94^a)
40 | O=C1C(O)=C(c2cccc(OC(F)(F)F)c2)C(=O)N1Cc1ccc(OC(F)(F)F)cc1 [Example 90] | logP = 4.30^a)
41 | O=C1C(O)=C(c2ccccc2F)C(=O)N1c1cc(Cl)cc(Cl)c1 [Example 73] | logP = 3.20^a)
42 | CCCCOC1CCCC(N2C(=O)C(O)=C(c3ccccc3Cl)C2=O)C1 (centres unmarked) [Example 153] | logP = 4.09^a)
43 | CCOc1cccc(F)c1CN1C(=O)C(O)=C(c2ccc(OC(F)(F)F)cc2)C1=O [Example 182] | logP = 4.13^a)
44 | Cc1ccc(-c2ccc(Cl)cc2)cc1C1=C(O)C(=O)N(c2c(Cl)cc(Cl)cc2Cl)C1=O [Example 127] | logP = 4.75^a)
45 | Cc1ccc(-c2ccc(Cl)cc2)cc1C1=C(O)C(=O)N(Cc2ccc(Cl)cc2Cl)C1=O [Example 121] | logP = 5.03^a)
46 | CCOc1ccc(N2C(=O)C(O)=C(c3ccccc3Cl)C2=O)nn1 [Example 29] | logP = 1.82^a)
47 | O=C1C(O)=C(c2ccccc2Cl)C(=O)N1C12CC3CC(CC(C3)C1)C2 [Example 161] | logP = 4.20^a)
48 | O=C1C(O)=C(c2ccccc2Cl)C(=O)N1c1ccc(Cl)cc1 [Example 60] | logP = 2.89^a)
49 | Cc1ccc(-c2ccc(Cl)cc2)cc1C1=C(O)C(=O)N(c2cc(F)ccc2F)C1=O [Example 146] | logP = 4.51^a)
50 | O=C1C(O)=C(c2ccc(C(F)(F)F)cc2)C(=O)N1Cc1cc(Cl)cc(Cl)c1 [Example 116] | logp = 4.18^a)

Row | Structure (SMILES) | logP
51 | O=C1C(O)=C(c2cccc(C(F)(F)F)c2)C(=O)N1Cc1cc(Cl)cc(Cl)c1 [Example 112] | logP = 4.27^a)
52 | O=C1C(O)=C(c2ccccc2Cl)C(=O)N1Cc1ccc(OC(F)(F)F)cc1 [Example 84] | logP = 3.56^a)
53 | O=C1C(O)=C(c2ccc(C(F)(F)F)cc2)C(=O)N1Cc1ccccc1F [Example 100] | logP = 3.40^a)
54 | O=C1C(O)=C(c2ccc(C(F)(F)F)cc2)C(=O)N1CCC(F)(F)F [Example 47] | logP = 3.06^a)
55 | N#Cc1ccc(C2=C(O)C(=O)N(Cc3ccccc3F)C2=O)cc1 [Example 98] | logP = 2.31^a)
56 | Cc1ccc(-c2ccc(Cl)cc2)cc1C1=C(O)C(=O)N(Cc2cccc(C(F)(F)F)c2)C1=O [Example 128] | logP = 4.65^a)
57 | CC1(C)CC(N2C(=O)C(O)=C(c3ccccc3Cl)C2=O)CC(C)(C)C1 [Example 160] | logP = 4.41^a)
58 | CC1CCCC(C#N)(N2C(=O)C(O)=C(c3ccccc3Cl)C2=O)C1 (centres unmarked) [Example 158] | logP = 3.06^a)
59 | Cc1ccc(-c2ccc(Cl)cc2)cc1C1=C(O)C(=O)N(c2ccccc2F)C1=O [Example 145] | logP = 4.94^a)
60 | O=C1C(O)=C(c2ccc(Cl)cc2)C(=O)N1c1ccc(C(F)(F)F)cc1 [Example 70] | logP = 3.70^a)
61 | O=C1C(O)=C(c2ccc(OC(F)(F)F)cc2)C(=O)N1c1ccc(Cl)cc1 [Example 62] | logP = 3.80^a)
62 | CCOC(=O)CCN1C(=O)C(O)=C(c2ccccc2Cl)C1=O [Example 177] | logP = 2.21^a)
63 | O=C1C(O)=C(c2c(F)cccc2F)C(=O)N1Cc1ccccc1F [Example 94] | logP = 2.49^a)
64 | O=C1C(O)=C(c2cccc(C(F)(F)F)c2)C(=O)N1Cc1ccc(OC(F)(F)F)cc1 [Example 85] | logP = 4.15^a)
65 | Cc1ccc(-c2ccc(Cl)cc2)cc1C1=C(O)C(=O)N(Cc2cccc(Cl)c2)C1=O [Example 123] | logP = 4.61^a)
66 | CCOC(=O)CCN1C(=O)C(O)=C(c2cc(Cl)cc(Cl)c2)C1=O [Example 179] | logP = 2.80^a)
67 | O=C1C(O)=C(c2ccc(OC(F)(F)F)cc2)C(=O)N1Cc1cc(Cl)cc(Cl)c1 [Example 113] | logP = 4.67^a)
68 | O=C1C(O)=C(c2cc(Cl)cc(Cl)c2)C(=O)N1Cc1cc(Cl)cc(Cl)c1 [Example 118] | logP = 4.21^a)
69 | CCOC(=O)C1(N2C(=O)C(O)=C(c3ccccc3Cl)C2=O)CCC(OC)CC1 (single isomer, unassigned) [Example 151] | logP = 2.53^a)
70 | O=C1C(O)=C(c2cccc(OC(F)(F)F)c2)C(=O)N1CCC(F)(F)F [Example 48] | logP = 3.30^a)
71 | O=C1C(O)=C(c2ccc(Cl)cc2)C(=O)N1c1ccc(Cl)cc1 [Example 63] | logP = 3.51^a)
72 | O=C1C(O)=C(c2ccc(C(F)(F)F)cc2)C(=O)N1c1cc(Cl)cc(Cl)c1 [Example 79] | logP = 3.75^a)
73 | O=C1C(O)=C(c2ccc(C(F)(F)F)cc2)C(=O)N1Cc1ccc(OC(F)(F)F)cc1 [Example 89] | logP = 4.03^a)
74 | O=C1C(O)=C(c2ccccc2F)C(=O)N1c1ccc(C(F)(F)F)cc1 [Example 67] | logP = 3.01^a)
